Measurements as given in patent US5324502A, “Radiopharmaceuticals for imaging the heart” (priority 1992, dated 1994).
Where two headings read alike, the source gives them in different places.

Experiments:
[1] = Octanol/water partition coefficient of radiolabeled gallium complexes; format: physicochemical; conditions: octanol/tris buffer, pH 7
Experimental: Octanol/water partition coefficients were measured by vortex mixing 1 mL of 1-octanol and 1 mL of isotonic Tris buffer (pH 7.0) with a 1-5 μL sample of the radiolabeled gallium complex. Following centrifugation at >1200 g for 5 minutes, the octanol and aqueous phases were sampled and counted in an automatic well counter.

[2] = rat, i.v.
Experimental: The gallium-67 complexes are prepared by ligand exchange from gallium-67 chloride, employing the tris(acetylacetonato)gallium(III) complex as an intermediate. The Ga-67 acetylacetonate in ethanol is reacted with the chelating ligand or ligand precursor at elevated temperature to form rapidly the desired gallium radiopharmaceutical. […] The biodistribution of several radiopharmaceuticals was determined in rats following intravenous injection using techniques previously described (M. A. Green, Nuclear Medicine and Biology 14:59-61, 1987; E. John and M. A. Green, J. Medicinal Chemistry, 33:1764-1770, 1990).
Under ether anesthesia, 1 to 3 μCi (0.1-0.2 mL) of no-carrier-added Ga-67 compound was administered by bolus injection into the femoral vein of male Sprague-Dawley rats. The ether anesthetized rats were sacrificed by decapitation at given time intervals post-injection, organs of interest were removed, weighed, and the gallium-67 activity counted. The biodistribution was calculated as a percentage of the injected dose per gram of tissue and percentage of injected dose per organ for each sample.

For `COc1cc([O-])c(C=NCCCNCCNCCCN=Cc2c([O-])cc(OC)cc2OC)c(OC)c1.[67Ga+3]` [(4,6-MeO2 Sal)2 BAPEN], the “log P” value [1] was 1.68, the “% Injected Dose per Gram Tissue, Blood” value ([2]; 1 min) was 0.66 ± 0.14 % Injected Dose per Gram Tissu and the “% Injected Dose per Gram Tissue, Brain” value ([2]; 1 min) was 0.03 ± 0.01 % Injected Dose per Gram Tissu. For the same molecule, the “% Injected Dose per Gram Tissue, Heart” value ([2]; 1 min) was 1.52 ± 0.24 % Injected Dose per Gram Tissu, the “% Injected Dose per Gram Tissue, Kidney (one)” value ([2]; 1 min) was 6.40 ± 0.92 % Injected Dose per Gram Tissu and the “% Injected Dose per Gram Tissue, Liver” value ([2]; 1 min) was 4.72 ± 0.82 % Injected Dose per Gram Tissu. For the same molecule, the “% Injected Dose per Gram Tissue, Lungs” value ([2]; 1 min) was 0.81 ± 0.16 % Injected Dose per Gram Tissu, the “% Injected Dose per Gram Tissue, Spleen” value ([2]; 1 min) was 0.61 ± 0.09 % Injected Dose per Gram Tissu and the “% injected dose in heart, 1 min” value ([2]; 1 min, preliminary studies) was 1.04 ± 0.12 % injected dose. The “% Injected Dose Per Gram of Tissue, Blood” value ([2]; 5 min) was 0.11 ± 0.01 % Injected Dose Per Gram of Tissue, the “% Injected Dose Per Gram of Tissue, Brain” value ([2]; 5 min) was 0.01 ± 0.00 % Injected Dose Per Gram of Tissue and the “% Injected Dose Per Gram of Tissue, Heart” value ([2]; 5 min) was 1.45 ± 0.20 % Injected Dose Per Gram of Tissue. The “% Injected Dose Per Gram of Tissue, Kidney (1)” value ([2]; 5 min) was 6.10 ± 0.53 % Injected Dose Per Gram of Tissue, the “% Injected Dose Per Gram of Tissue, Liver” value ([2]; 5 min) was 4.32 ± 0.53 % Injected Dose Per Gram of Tissue and the “% Injected Dose Per Gram of Tissue, Lungs” value ([2]; 5 min) was 0.55 ± 0.05 % Injected Dose Per Gram of Tissue. For the same molecule, the “% Injected Dose Per Gram of Tissue, Spleen” value ([2]; 5 min) was 0.52 ± 0.15 % Injected Dose Per Gram of Tissue, the “% Injected Dose per Gram Tissue, Blood” value ([2]; 15 min) was 0.07 ± 0.01 % Injected Dose per Gram Tissu and the “% Injected Dose per Gram Tissue, Brain” value ([2]; 15 min) was 0.01 ± 0.00 % Injected Dose per Gram Tissu. The “% Injected Dose per Gram Tissue, Heart” value ([2]; 15 min) was 1.22 ± 0.12 % Injected Dose per Gram Tissu, the “% Injected Dose per Gram Tissue, Kidney (one)” value ([2]; 15 min) was 4.22 ± 0.30 % Injected Dose per Gram Tissu and the “% Injected Dose per Gram Tissue, Liver” value ([2]; 15 min) was 2.19 ± 0.21 % Injected Dose per Gram Tissu. For the same molecule, the “% Injected Dose per Gram Tissue, Lungs” value ([2]; 15 min) was 0.42 ± 0.06 % Injected Dose per Gram Tissu, the “% Injected Dose per Gram Tissue, Spleen” value ([2]; 15 min) was 0.43 ± 0.06 % Injected Dose per Gram Tissu and the “% Injected Dose per Gram Tissue, Blood” value ([2]; 120 min) was 0.03 ± 0.00 % Injected Dose per Gram Tissu. For the same molecule, the “% Injected Dose per Gram Tissue, Brain” value ([2]; 120 min) was 0.01 ± 0.00 % Injected Dose per Gram Tissu, the “% Injected Dose per Gram Tissue, Heart” value ([2]; 120 min) was 1.37 ± 0.12 % Injected Dose per Gram Tissu and the “% Injected Dose per Gram Tissue, Kidney (one)” value ([2]; 120 min) was 2.77 ± 0.24 % Injected Dose per Gram Tissu. For the same molecule, the “% Injected Dose per Gram Tissue, Liver” value ([2]; 120 min) was 0.33 ± 0.01 % Injected Dose per Gram Tissu, the “% Injected Dose per Gram Tissue, Lungs” value ([2]; 120 min) was 0.45 ± 0.11 % Injected Dose per Gram Tissu and the “% Injected Dose per Gram Tissue, Spleen” value ([2]; 120 min) was 0.37 ± 0.06 % Injected Dose per Gram Tissu. The “% injected dose in heart, 2 h” value ([2]; 2 h, preliminary studies) was 0.86 ± 0.11 % injected dose, the Heart/Blood ([2]; ratio, 1 min) was 2.34 ± 0.36 and the Heart/Liver ([2]; ratio, 1 min) was 0.32 ± 0.03. For the same molecule, the Heart/Lungs ([2]; ratio, 1 min) was 1.88 ± 0.18, the Heart/Blood ([2]; ratio, 5 min) was 13.28 ± 2.19 and the Heart/Liver ([2]; ratio, 5 min) was 0.34 ± 0.04. It also gave a Heart/Lung ([2]; ratio, 5 min) of 2.64 ± 0.34, a Heart/Blood ([2]; ratio, 15 min) of 18.10 ± 0.91 and a Heart/Liver ([2]; ratio, 15 min) of 0.56 ± 0.10. The Heart/Lungs ([2]; ratio, 15 min) was 2.98 ± 0.53, the Heart/Blood ([2]; ratio, 120 min) was 45.58 ± 3.96 and the Heart/Liver ([2]; ratio, 120 min) was 4.12 ± 0.44. It also gave a Heart/Lungs ([2]; ratio, 120 min) of 3.27 ± 1.32.
